Patent publication US7732199B2, “Process for making transplantable cardiomyocytes from human embryonic stem cells” (Geron Corporation, priority 2001, dated 2010)

Tests used:
[1] = test system: hES-derived cardiomyocytes; experiment: Pharmacological response: contraction rate of beating areas of hES-derived cardiomyocytes; type: cell-based, human; settings: for chronotropic effect: FIG. 5 Panels B to E
Description: EBs were plated on to gelatin-coated 24-well plates and allowed to differentiate, as in Example 2. Contracting cardiomyocytes at differentiation day 15-21 were used for examining pharmacological response. The frequency of the spontaneous beating was measured by counting the contraction rate of the beating areas maintained in the differentiation medium in a 37° C. heating chamber of an inverted microscope. The cells were then incubated with test compounds in the incubator for 20-30 min, and observed for contraction rate. Dose-dependent effects were determined by cumulatively applying of increasing concentrations of each substrate. Data represent the mean pulsation rate±standard error of the mean measured on 10-20 beating areas.
Differentiated cells were incubated with various concentrations of the drug and the number of beats per minute was counted. The cells were then washed with medium, maintained in differentiation medium for 24 h and observed for the time taken to recover contractility.

[2] = test system: hES cells of the H1 or H9 line being cultured as embryoid bodies
[3] = test system: Undifferentiated hES cells of the H7 line; experiment: Direct differentiation of plated hES cells to contracting cardiomyocytes; type: cell-based, human; settings: 10 μM at day 10-12 or 12-14; no embryoid body stage
Description: Cardiomyocyte differentiation was also achieved in a direct differentiation paradigm. Undifferentiated hES cells of the H7 line were dissociated and plated directly onto gelatin-coated plates without going through an embryoid body stage. The plated cells were cultured in differentiation medium (80% KO-DMEM, 1 mM L-glutamine, 0.1 mM β-mercaptoethanol, 1% amino acids, and 20% fetal bovine serum). Contracting cardiomyocytes were found at day 18 in cultures treated with 10 μM 5-aza-deoxy-cytidine at day 10-12 or 12-14, and at later times in all cultures.

[4] = test system: cardiomyogenic cell line developed from bone marrow stroma; settings: treated for 24 hours; cited from earlier work

CC(C)NCC(O)c1ccc(O)c(O)c1 (stereo not shown) [isoprenaline]
chronotropic effect [1]: positive chronotropic effects

CC1=C(/C=C/C(C)=C/C=C/C(C)=C/C(=O)O)C(C)(C)CCC1 [RA, all-trans retinoic acid]
toxicity to the cells [2]: toxic
beating cells compared with untreated cultures ([2]; doses between 10^−9 and 10^−5 M, at days 4-8, 8-15, or 4-15): no increase

CNC[C@H](O)c1cccc(O)c1 [phenylephrine]
chronotropic effect [1]: positive chronotropic effects

COc1ccc([C@@H]2Sc3ccccc3N(CCN(C)C)C(=O)[C@@H]2OC(C)=O)cc1 [diltiazem]
beating areas that stopped contraction ([1]; 10^−5 M): 100%
time until contraction recovered to normal levels after removal of the drug ([1]; cells washed and kept in differentiation medium): 24 to 48 h
beating rate ([1]; various concentrations, incubated 20-30 min, differentiation day 15-21, FIG. 5 Panel A): inhibited

CC(C)(C)NCC(O)c1cc(Cl)c(N)c(Cl)c1 (stereo not shown) [clenbuterol]
beating rate after treatment ([1]; 1-10 nM, cells taken at Day 72, from about 72 beats/min, p<0.005): about 98 beats/min

Nc1ncn([C@H]2C[C@H](O)[C@@H](CO)O2)c(=O)n1 [5-aza-deoxy-cytidine]
day at which contracting cardiomyocytes were found [3]: 18 days
proportion of beating areas in the culture ([2]; 1 to 10 μM at day 6-8): increased
expression of cardiac α-MHC (ratio of αMHC to 18S RNA) ([2]; 1 to 10 μM at day 6-8, harvested at day 15): significantly increased

Nc1ncn([C@@H]2O[C@H](CO)[C@@H](O)[C@H]2O)c(=O)n1 [5-azacytidine]
cells forming myotube-like structures, acquiring cardiomyocyte markers and beginning to beat [4]: 30%

C[S+](C)[O-] [DMSO, dimethyl sulfoxide]
toxicity to the cells [2]: toxic
beating areas compared with non-treated cultures ([2]; 0.5% from days 0-4): fewer
beating cells ([2]; 0.8% or 1%): absent
α-MHC expression compared with untreated cultures ([2]; DMSO treatment): significant reduction
